Measurements published in publication PMC12613110, “Anti-Trypanosoma cruzi Effects of Sesquiterpenoids from Branches of Drimys brasiliensis (Winteraceae)” (ACS Omega, 2025).
One block for each molecule: values may come before it.

Experiments:
[1] = tested on: T. cruzi trypomastigotes (Y strain); test: Anti-T. cruzi activity against trypomastigote forms (resazurin reduction assay, 24 h); assay type: cell-based; settings: Trypanosoma cruzi, ± SD
Procedure: (§1) The trypomastigote forms of T. cruzi (Y strain) were maintained in culture using Rhesus monkey kidney cells (LLC-MK2, ATCC CCL-7). These cells were cultured in RPMI-1640 medium supplemented with 2% fetal bovine serum (FBS) and incubated at 37 °C in a humidified atmosphere containing 5% CO2. Mouse fibroblast cells (NCTC clone L929, ATCC) and LLC-MK2 cells were similarly maintained in RPMI-1640 medium supplemented with 10% FBS under identical incubation conditions (37 °C, 5% CO2). Peritoneal macrophages were isolated from BALB/c mice by peritoneal lavage using RPMI-1640 medium supplemented with 10% FBS, followed by incubation at 37 °C in a 5% CO2 humidified atmosphere. In addition, the human monocytic cell line THP-1 (ATCC TIB-202) was cultured in RPMI-1640 medium supplemented with 20% FBS and […] glutamine, and maintained at 37 °C in a humidified 5% CO2 environment.
Compounds 1–6 were initially dissolved in DMSO and subsequently diluted in RPMI-1640 medium to the desired concentrations before being dispensed into 96-well microplates. T. cruzi trypomastigotes were then added at a density of 1 × 10^6 parasites per well. The plates were incubated for 24 h at 37 °C in a humidified atmosphere containing 5% CO2. Following incubation, the 50% effective concentration (EC50) was determined using the resazurin reduction assay. Absorbance readings were acquired at 570 nm using a microplate spectrophotometer (FilterMax F5). Untreated parasites served as the negative control, while benznidazole, a standard reference drug, was used as the positive control.
(§2) The CC50 and EC50 values were obtained from sigmoid dose–response curves using Graph-Pad Prims 6.0 software. All samples were tested in triplicate.

[2] = tested on: intracellular amastigote forms of T. cruzi; test: Activity against intracellular amastigote forms of T. cruzi in infected peritoneal macrophages (48 h); assay type: cell-based; settings: Trypanosoma cruzi, Peritoneal macrophage, intracellular amastigotes in peritoneal macrophages, ± SD, NA: nonactive
Procedure: as §1
The antiparasitic activity of compounds 1–6 against the intracellular amastigote forms of T. cruzi was assessed using an in vitro infection model with peritoneal macrophages. Macrophages were seeded in 16-well plates at a density of 1 × 10^5 cells per well and incubated at 37 °C in a humidified atmosphere containing 5% CO2 for 24 h to promote adherence. Cells were then infected with trypomastigotes for 2 h under the same conditions to allow parasite internalization. Following infection, noninternalized parasites were removed by washing with RPMI-1640 medium. The infected macrophages were subsequently treated with serial dilutions of compounds 1–6 (150.0–1.6 μM) and incubated for an additional 48 h at 37 °C in 5% CO2 to evaluate their antitrypanosomal efficacy. ,
as §2

[3] = Mammalian cytotoxicity, MTT assay (48 h); assay type: cell-based; settings: mouse
Procedure: as §1
The cytotoxicity of compounds 1–6 was assessed using NCTC (clone L929) cell line. NCTC cells (6 × 10^4 cells/well) were seeded into 96-well plates and treated with serial dilutions of the test compounds prepared in RPMI-1640 medium supplemented with 10% fetal bovine serum (FBS). Following a 48-h incubation at 37 °C in a humidified atmosphere with 5% CO2, cell viability was determined using the MTT colorimetric assay. The 50% cytotoxic concentration (CC50) was calculated based on absorbance measurements at 570 nm using a FilterMax F5 microplate reader (Molecular Devices).
as §2

Leishmania infantum = tested on: Leishmania infantum; design: method as in previous study by our group; settings: after a short incubation period; ref previous study by our group; cited from earlier work
[4] = NCTC clone L929 fibroblast cells

Compound: CC(C)=CCC[C@@H](C)C1=CC(=O)[C@@](C)(O)CC1 (relative stereo) [Compound 1, rel-(3S,7R)-3-hydroxy-bisabola-1(6),10-dien-2-one]
- EC50 [1]: 38.5 ± 2.7 µM
- EC50 [2]: 6.7 ± 3.8 µM
- CC50 at 48 h [3, 4]: > 200 µM

Compound: CC(C)=CCC[C@@H](C)C1=C[C@H](O)[C@@](C)(O)CC1 (relative stereo) [Compound 2, rel-(2S,3S,7R)-bisabola-1(6),10-diene-2,3-diol]
- EC50 [1]: 88.3 ± 6.5 µM
- EC50 [2]: 24.2 ± 4.4 µM
- CC50 at 48 h [3, 4]: > 200 µM

Compound: CC(C)=CCC[C@@H](C)[C@]12C=C[C@](C)(CC1)OO2 (relative stereo) [Compound 3, rel-(3S,6R,7R)-3,6-epidioxy-1,10-bisaboladiene]
- EC50 [1]: 65.5 ± 5.4 µM
- CC50 at 48 h [3, 4]: > 200 µM

Compound: CC(C)=CCC[C@@H](C)c1ccc(C)cc1 [Compound 4, α-curcumene]
- EC50 [1]: 20.5 ± 1.6 µM
- EC50 [2]: 4.9 ± 0.1 µM
- CC50 at 48 h [3, 4]: > 200 µM

Compound: C=C1[C@@H](C)CC[C@]2(C)[C@@H](C=O)C(C=O)=CC[C@@H]12 [Compound 6, 9-deoxymuzigadial]
- EC50 [1]: 5.9 ± 0.9 µM
- EC50 [2]: 3.1 ± 0.1 µM
- CC50 at 48 h ([3]; NCTC clone L929 cells): > 200 µM

Now from value to molecule, other results behind:

- EC50 [1]: 3.8 ± 3.1 µM
Compound: CC1(C)CCC[C@]2(C)[C@@H](C=O)C(C=O)=CC[C@@H]12 [Compound 5, polygodial]
- EC50 [2]: 3.5 ± 0.2 µM
- CC50 at 48 h [3, 4]: > 200 µM
- ultrastructural damage to Leishmania (Leishmania infantum): intense mitochondrial swelling

- EC50 [1]: 17.4 ± 1.8 µM
Compound: O=C(Cn1ccnc1[N+](=O)[O-])NCc1ccccc1 [benznidazole, reference compound]
- EC50 [2]: 5.5 ± 2.2 µM
- CC50 at 48 h [3, 4]: > 200 µM
